Measurements as given in patent US11807650B2, “NMDA receptor modulators and uses thereof” (Novartis AG, priority 2016, dated 2023).

Columns and labels:
[1] = biological target: T1, human GRIN1 (variant NR1-3) and GRIN2D expressed in HEK293 cells (Homo sapiens, UniProt O15399); assay: GluN2D PAM CIQ fluorescence assay (Fluo-8 calcium, FDSS 6000); assay type: cell-based; conditions: relative to CIQ (100 uM) = 100%, read-out: NR2D Percent CIQ Avg Max Measured Effect
T1 construct: GenScript (GRIN2D synthesis) SC115601; host or cells: HEK293
Method: GluN2D PAM CIO Flourescence AssayHEK293 cells were transfected to express human GRIN1 (variant NR1-3, Origene, SKU #: SC115601, Rockville, Md.) and GRIN2D (NCBI locus NM_000836, sequence optimized and synthesized by GenScript) and grown as an adherent monolayer at 37° C., 5% CO2 in DMEM/Ham's F12+10% FBS (Hyclone SH3007.03T in the presence of 2.5 mM ARL-15896 (AdooQ Bioscience, Irvine Calif.). To prepare the cells for an experiment, they were rinsed with Dulbecco's PBS (Ca^2+ and Mg^2+ free) and detached from the flask with TrypLE™ Express (Life Technologies, Carlsbad, Calif.) using the manufacturer's recommended methods. Cells collected from the flask were washed twice in Ca^2+/Mg^2+-free Hanks Balanced Salt Solution+20 mM HEPES (HBSS), and counted and assessed for viability with trypan blue. Washed cells were then dye-loaded by resuspending in Fluo-8/AM calcium sensitive dye plus Component B (AAT Bioquest, Sunnyvale, Calif.) diluted in HBSS. To allow cells to take up fluo-8 dye, they were incubated in the dark for 15 min at 37° C., followed by 30 min at 22-25° C. After dye-loading, cells were washed and resuspended in HBSS and plated in 384-well plates (Falcon 353962; Corning, Big Flats, N.Y.) at 20,000-30,000 cells/well in a final volume of 25 μl/well. The cell plates were centrifuged at 200×g, for 2 minutes at 21° C., to create a monolayer of cells at the bottom of the wells.
To initiate an assay, 10 μl of test compound or buffer was added to each well of the cell plate and pre-incubated for 10 minutes in the dark. After 10 minutes, the cell plate was placed in a FDSS 6000 plate reader (Hamamatsu Photonics, Middlesex, N.J.); baseline fluorescence readings were collected for 20 seconds. Next, 25 μl of agonist solution (3 μM glutamate, 3 μM glycine, and 1 mM Ca^2+ in HBSS) was added and the change in fluorescence was recorded for 3 minutes.
Results were calculated by comparing the effects of test compounds to that of the literature standard GluN2C/D PAM CIQ (100 uM). The increase in fluorescence in the presence of CIQ minus the increase induced by glutamate+glycine alone was set to 100%. Responses induced by compounds that were larger than gain the presence of the standard concentration of CIQ were greater than 100% and lesser responses were less than 100%.

[2] = biological target: T2, human GRIN1 (transcript variant NR1-3) and GRIN2D expressed in Xenopus oocytes (Homo sapiens, UniProt O15399); assay: NR2D oocyte potentiation assay (two-electrode voltage clamp); assay type: cell-based; conditions: 10 uM test compound; glutamate and glycine 10 μM each; holding potential −40 mV
T2 construct: GenScript (GRIN2D synthesis) SC115601; host or cells: Xenopus oocytes injected with cRNA (1 GluN1 : 2 GluN2)
Procedure, shortened: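 Xenopus oocytes were defolliculated with collagenase, then injected with 50 nL of cRNA encoding human GluN1 (NR1-3 variant) and GluN2D mixed 1:2 and kept 72 h at 16° C. Two-electrode voltage clamp at −40 mV recorded currents; after 10 μM glutamate plus 10 μM glycine reached plateau, test compound was added until a new plateau formed.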

T2 sequence (O15399 28-1336, other chains not shown): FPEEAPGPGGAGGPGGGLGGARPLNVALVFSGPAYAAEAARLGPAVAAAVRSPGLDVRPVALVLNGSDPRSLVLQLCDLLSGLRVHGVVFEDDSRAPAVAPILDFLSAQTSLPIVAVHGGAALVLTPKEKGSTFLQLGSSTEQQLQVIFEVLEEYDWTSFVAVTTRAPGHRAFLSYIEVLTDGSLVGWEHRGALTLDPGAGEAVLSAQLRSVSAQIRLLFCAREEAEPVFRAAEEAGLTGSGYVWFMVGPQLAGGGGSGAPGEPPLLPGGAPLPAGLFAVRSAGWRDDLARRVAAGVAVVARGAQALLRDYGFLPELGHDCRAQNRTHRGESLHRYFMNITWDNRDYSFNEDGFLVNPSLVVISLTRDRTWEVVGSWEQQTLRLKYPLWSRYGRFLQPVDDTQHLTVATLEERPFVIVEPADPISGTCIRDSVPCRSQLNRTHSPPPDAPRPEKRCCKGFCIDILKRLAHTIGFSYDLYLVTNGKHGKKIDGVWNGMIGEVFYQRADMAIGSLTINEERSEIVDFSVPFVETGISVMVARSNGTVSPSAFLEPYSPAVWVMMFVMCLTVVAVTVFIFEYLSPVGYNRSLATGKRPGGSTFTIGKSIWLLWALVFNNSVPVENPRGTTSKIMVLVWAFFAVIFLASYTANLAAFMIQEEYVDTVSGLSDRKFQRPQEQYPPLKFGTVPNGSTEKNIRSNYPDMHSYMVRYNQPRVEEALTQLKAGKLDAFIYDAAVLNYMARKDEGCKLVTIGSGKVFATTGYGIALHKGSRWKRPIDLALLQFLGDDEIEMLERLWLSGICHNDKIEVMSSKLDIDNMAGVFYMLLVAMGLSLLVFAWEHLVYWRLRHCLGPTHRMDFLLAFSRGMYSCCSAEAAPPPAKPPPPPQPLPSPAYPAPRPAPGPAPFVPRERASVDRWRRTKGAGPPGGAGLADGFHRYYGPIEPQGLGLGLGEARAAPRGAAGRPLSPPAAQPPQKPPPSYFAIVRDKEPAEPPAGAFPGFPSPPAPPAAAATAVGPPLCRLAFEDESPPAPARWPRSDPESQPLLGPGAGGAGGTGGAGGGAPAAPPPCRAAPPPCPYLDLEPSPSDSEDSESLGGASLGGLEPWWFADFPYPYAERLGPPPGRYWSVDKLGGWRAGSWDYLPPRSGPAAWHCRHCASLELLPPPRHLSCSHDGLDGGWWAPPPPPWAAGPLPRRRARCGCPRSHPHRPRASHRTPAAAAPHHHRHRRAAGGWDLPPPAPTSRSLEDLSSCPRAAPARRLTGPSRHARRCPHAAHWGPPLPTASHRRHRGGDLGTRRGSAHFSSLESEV
T1 sequence (O15399 28-1336, other chains not shown): as above

Structure (SMILES) | Emax [1] [%] | activation at 10 µM [2] [%] | NR2D Oocyte % Potentiation @ 10 uM [2]
CC1CSc2nc(-c3cnc(C(C)(C)C)nc3)c(C#N)c(=O)n2C1 (stereo not drawn) [Example 49, 8-(2-(tert-butyl)pyrimidin-5-yl)-3-methyl-6-oxo-3,4-dihydro-2H,6H-pyrimido[2,1-b][1,3]thiazine-7-carbonitrile] | > 200 | > 1000 | –
CC1CCSc2nc(-c3ccc(C(C)(C)C)nc3)c(C#N)c(=O)n21 (stereo not drawn) [Example 50, 8-(6-(tert-butyl)pyridin-3-yl)-4-methyl-6-oxo-3,4-dihydro-2H,6H-pyrimido[2,1-b][1,3]thiazine-7-carbonitrile] | 100 to 200 | 100 to 500 | –
CC1CSc2nc(-c3ccc(C(C)(C)C)nc3)c(C#N)c(=N)n2C1 (stereo not drawn) [Example 63, 8-(6-(tert-butyl)pyridin-3-yl)-6-imino-3-methyl-3,4-dihydro-2H,6H-pyrimido[2,1-b][1,3]thiazine-7-carbonitrile] | > 200 | > 1000 | –
C[C@H]1CSc2nc(-c3ccc(C(C)(C)C)nc3)c(C#N)c(=N)n2C1 [Example 64, (R)-8-(6-(tert-butyl)pyridin-3-yl)-6-imino-3-methyl-3,4-dihydro-2H,6H-pyrimido[2,1-b][1,3]thiazine-7-carbonitrile] | 100 to 200 | 100 to 500 | –
C[C@@H]1CSc2nc(-c3ccc(C(C)(C)C)nc3)c(C#N)c(=N)n2C1 [Example 65, (S)-8-(6-(tert-butyl)pyridin-3-yl)-6-imino-3-methyl-3,4-dihydro-2H,6H-pyrimido[2,1-b][1,3]thiazine-7-carbonitrile] | > 200 | > 1000 | –
CC1CSc2nc(-c3ccc(N(C)C)nc3)c(C#N)c(=O)n2C1 (stereo not drawn) [Example 67, 8-[6-(dimethylamino)pyridin-3-yl]-3-methyl-6-oxo-2H,3H,4H,6H-pyrimido[2,1-b][1,3]thiazine-7-carbonitrile] | 50 to 100 | 100 to 500 | –
CC(C)(C)c1ccc(-c2nc3n(c(=O)c2C#N)CCCS3)cn1 [Example 174, 8-(6-tert-butyl-3-pyridinyl)-3,4-dihydro-6-oxo-2H,6H-pyrimido[2,1-b][1,3]thiazine-7-carbonitrile] | 100 to 200 | 500 to 1000 | –
CC1CSc2nc(-c3ccc(C(C)(C)C)nc3)c(C#N)c(=O)n2C1 (stereo not drawn) [Example 175, 8-(6-tert-butylpyridin-3-yl)-3-methyl-6-oxo-2H,3H,4H,6H-pyrimido[2,1-b][1,3]thiazine-7-carbonitrile] | 100 to 200 | > 1000 | –
CC(C)(C)c1ncc(-c2nc3n(c(=O)c2C#N)CCCS3)cn1 [Example 176, 8-(2-tert-butylpyrimidin-5-yl)-6-oxo-2H,3H,4H,6H-pyrimido[2,1-b][1,3]thiazine-7-carbonitrile] | 100 to 200 | 500 to 1000 | –
N#Cc1c(-c2cnc(C3CC3)nc2)nc2n(c1=O)CCCS2 [Example 178, 8-(2-cyclopropylpyrimidin-5-yl)-6-oxo-2H,3H,4H,6H-pyrimido[2,1-b][1,3]thiazine-7-carbonitrile] | 100 to 200 | 10 to 100 | –
CC(C)(C)c1cc(-c2nc3n(c(=O)c2C#N)CCCS3)ccn1 [Example 179, 8-(2-tert-butylpyridin-4-yl)-6-oxo-2H,3H,4H,6H-pyrimido[2,1-b][1,3]thiazine-7-carbonitrile] | 100 to 200 | 10 to 100 | –
N#Cc1c(-c2ccc(C3CC3)nc2)nc2n(c1=O)CCCS2 [Example 181, 8-(6-cyclopropylpyridin-3-yl)-6-oxo-2H,3H,4H,6H-pyrimido[2,1-b][1,3]thiazine-7-carbonitrile] | 100 to 200 | 10 to 100 | –

Other lines, results leading:

Emax [1] [%] | activation at 10 µM [2] [%] | NR2D Oocyte % Potentiation @ 10 uM [2] | Structure (SMILES)
100 to 200 | 10 to 100 | – | Cc1nc(C(C)(C)C)ccc1-c1nc2n(c(=O)c1C#N)CCCS2 [Example 182, 8-(6-tert-butyl-2-methylpyridin-3-yl)-6-oxo-2H,3H,4H,6H-pyrimido[2,1-b][1,3]thiazine-7-carbonitrile]
100 to 200 | 10 to 100 | – | CC(C)(C)c1ccc(-c2nc3n(c(=O)c2C#N)CCCS3)nc1 [Example 183, 8-(5-tert-butylpyridin-2-yl)-6-oxo-2H,3H,4H,6H-pyrimido[2,1-b][1,3]thiazine-7-carbonitrile]
100 to 200 | > 1000 | – | CC(C)(C)c1ccc(-c2nc3n(c(=O)c2C#N)CCCS3)cc1 [Example 184, 8-(4-tert-butylphenyl)-3,4-dihydro-6-oxo-2H,6H-pyrimido[2,1-b][1,3]thiazine-7-carbonitrile]
10 to 50 | 10 to 100 | – | N#Cc1c(-c2ccc(C3CC3)cc2)nc2n(c1=O)CCCS2 [Example 189, 8-(4-cyclopropylphenyl)-6-oxo-2H,3H,4H,6H-pyrimido[2,1-b][1,3]thiazine-7-carbonitrile]
10 to 50 | 10 to 100 | – | Cc1ccc(-c2ccc(-c3nc4n(c(=O)c3C#N)CCCS4)c(F)c2)cc1 [Example 197, 8-[2-fluoro-4-(4-methylphenyl)phenyl]-6-oxo-2H,3H,4H,6H-pyrimido[2,1-b][1,3]thiazine-7-carbonitrile]
10 to 50 | 10 to 100 | – | CC(C)c1ccc(-c2ccc(-c3nc4n(c(=O)c3C#N)CCCS4)c(F)c2)cc1 [Example 198, 8-{2-fluoro-4[4-(propan-2-yl)phenyl]phenyl}-6-oxo-2H,3H,4H,6H-pyrimido[2,1-b][1,3]thiazine-7-carbonitrile]
100 to 200 | > 1000 | – | CC1CSc2nc(-c3ccc(C(C)(C)C)cc3)c(C#N)c(=O)n2C1 (stereo not drawn) [Example 199, 8-(4-tert-butylphenyl)-3,4-dihydro-3-methyl-6-oxo-2H,6H-pyrimido[2,1-b][1,3]thiazine-7-carbonitrile]
50 to 100 | < 10 | – | CC(C)(C)c1ccc(-c2nc3n(c(=O)c2C#N)CC(O)CS3)cc1 (stereo not drawn) [Example 200, 8-(4-tert-butylphenyl)-3,4-dihydro-3-hydroxy-6-oxo-2H,6H-pyrimido[2,1-b][1,3]thiazine-7-carbonitrile]
100 to 200 | 10 to 100 | – | CC1CCSc2nc(-c3ccc(C(C)(C)C)cc3)c(C#N)c(=O)n21 (stereo not drawn) [Example 201, 8-(4-tert-butylphenyl)-3,4-dihydro-4-methyl-6-oxo-2H,6H-pyrimido[2,1-b][1,3]thiazine-7-carbonitrile]
10 to 50 | – | Inhibitor | CC(C)(C)c1ccc(-c2nc3n(c(=O)c2C#N)C(c2ccccc2)CCS3)cc1 (stereo not drawn) [Example 202, 8-(4-tert-butylphenyl)-3,4-dihydro-4-phenyl-6-oxo-2H,6H-pyrimido[2,1-b][1,3]thiazine-7-carbonitrile]
10 to 50 | 10 to 100 | – | CC(C)(C)c1ccc(-c2nc3n(c(=O)c2C#N)CC2(COC2)CS3)cc1 [Example 204, 8′-(4-tert-butylphenyl)-6′-oxo-4′,6′-dihydro-2′H-spiro[oxetane-3,3′-pyrimido[2,1-b][1,3]thiazine]-7′-carbonitrile]
100 to 200 | 100 to 500 | – | CC(C)(C)c1ccc(-c2nc3n(c(=O)c2C#N)CCS3)cc1 [Example 205, 7-(4-tert-butylphenyl)-5-oxo-2H,3H,5H-[1,3]thiazolo[3,2-a]pyrimidine-6-carbonitrile]
50 to 100 | 10 to 100 | – | CC(C)c1ccc(-c2nc3n(c(=O)c2C#N)CCS3)cc1 [Example 206, 5-oxo-7-[4-(propan-2-yl)phenyl]-2H,3H,5H-[1,3]thiazolo[3,2-a]pyrimidine-6-carbonitrile]
50 to 100 | – | Inhibitor | COc1ccc(-c2nc3n(c(=O)c2C#N)CCS3)c(OC)c1 [Example 208, 7-(2,4-dimethoxyphenyl)-5-oxo-2H,3H,5H-[1,3]thiazolo[3,2-a]pyrimidine-6-carbonitrile]
10 to 50 | – | Inhibitor | N#Cc1c(-c2ccc(Cl)cc2)nc2n(c1=O)CCS2 [Example 209, 7-(4-chlorophenyl)-5-oxo-2H,3H,5H-[1,3]thiazolo[3,2-a]pyrimidine-6-carbonitrile]
